Experimental data from ChEMBL document CHEMBL1240358, “Activity of a new antipseudomonal cephalosporin, CXA-101 (FR264205), against carbapenem-resistant and multidrug-resistant Pseudomonas aeruginosa clinical strains” (2010).
Values after ≈ are worked out from the molar mass of the structure shown.

Legend:
Type in all cases: functional
[1] = system: Pseudomonas aeruginosa; assay: Antibacterial activity against carbapenem-resistant Pseudomonas aeruginosa isolate 1C3 PTOL1 harboring acquired beta-lactamase OXA-17 by broth microdilution method
[2] = system: Pseudomonas aeruginosa; assay: Antibacterial activity against carbapenem-resistant Pseudomonas aeruginosa isolate 1C2 PTOL1 harboring beta-lactamase OXA-17 by broth microdilution method
[3] = system: Pseudomonas aeruginosa; assay: Antibacterial activity against carbapenem-resistant Pseudomonas aeruginosa isolate 1E3 PpA2 harboring acquired beta-lactamase OXA-101 by broth microdilution method
[4] = system: Pseudomonas aeruginosa; assay: Antibacterial activity against carbapenem-resistant Pseudomonas aeruginosa isolate 1E2 PpA1 harboring acquired beta-lactamase OXA-144 by broth microdilution method
[5] = system: Pseudomonas aeruginosa; assay: Antibacterial activity against Pseudomonas aeruginosa assessed as percent nonsusceptible isolates by broth microdilution assay
[6] = system: Pseudomonas aeruginosa; assay: Antibacterial activity against carbapenem-resistant Pseudomonas aeruginosa isolate 1B2 RCA2 harboring acquired beta-lactamase PER-1 by broth microdilution method
[7] = system: Pseudomonas aeruginosa; assay: Antibacterial activity against carbapenem-resistant Pseudomonas aeruginosa isolate 3C8 GM1 harboring acquired beta-lactamase OXA-144 by broth microdilution method
[8] = system: Pseudomonas aeruginosa; assay: Antibacterial activity against Pseudomonas aeruginosa PAO1 harboring acquired beta-lactamase OXA-144 by broth microdilution method
[9] = system: Pseudomonas aeruginosa; assay: Antibacterial activity against carbapenem-resistant Pseudomonas aeruginosa isolate 1E1 PpA1 harboring acquired beta-lactamase OXA-144 by broth microdilution method
[10] = system: Pseudomonas aeruginosa; assay: Antibacterial activity against carbapenem-resistant Pseudomonas aeruginosa isolate 3C1 VAL6 by broth microdilution method
[11] = system: Pseudomonas aeruginosa; assay: Antibacterial activity against Pseudomonas aeruginosa PAO1 harboring acquired beta-lactamase OXA-2 by broth microdilution method
[12] = system: Pseudomonas aeruginosa; assay: Antibacterial activity against carbapenem-resistant Pseudomonas aeruginosa isolate 3D2 GM2 harboring acquired beta-lactamase BEL-3 by broth microdilution method
[13] = system: Pseudomonas aeruginosa; assay: Antibacterial activity against carbapenem-resistant Pseudomonas aeruginosa isolate 3C9 GM1 harboring acquired beta-lactamase OXA-144 by broth microdilution method
[14] = system: Pseudomonas aeruginosa; assay: Antibacterial activity against carbapenem-resistant Pseudomonas aeruginosa isolate 1D5 SA1 harboring acquired beta-lactamase VIM-2 by broth microdilution method
[15] = system: Pseudomonas aeruginosa; assay: Antibacterial activity against Pseudomonas aeruginosa PAO1 by broth microdilution method
[16] = system: Pseudomonas aeruginosa; assay: Antibacterial activity against gentamicin-resistant Pseudomonas aeruginosa by broth microdilution method
[17] = system: Pseudomonas aeruginosa; assay: Antibacterial activity against gentamicin-susceptible Pseudomonas aeruginosa by broth microdilution method
[18] = system: Pseudomonas aeruginosa; assay: Antibacterial activity against amikacin-susceptible Pseudomonas aeruginosa by broth microdilution method
[19] = system: Pseudomonas aeruginosa; assay: Antibacterial activity against aztreonam-susceptible Pseudomonas aeruginosa by broth microdilution method
[20] = system: Pseudomonas aeruginosa; assay: Antibacterial activity against ciprofloxacin-resistant Pseudomonas aeruginosa by broth microdilution method
[21] = system: Pseudomonas aeruginosa; assay: Antibacterial activity against ceftazidime-susceptible Pseudomonas aeruginosa by broth microdilution method
[22] = system: Pseudomonas aeruginosa; assay: Antibacterial activity against Pseudomonas aeruginosa by broth microdilution method
[23] = system: Pseudomonas aeruginosa; assay: Antibacterial activity against multidrug-resistant Pseudomonas aeruginosa by broth microdilution method
[24] = system: Pseudomonas aeruginosa; assay: Antibacterial activity against cefepime-susceptible Pseudomonas aeruginosa by broth microdilution method
[25] = system: Pseudomonas aeruginosa; assay: Antibacterial activity against piperacillin-resistant Pseudomonas aeruginosa by broth microdilution method
[26] = system: Pseudomonas aeruginosa; assay: Antibacterial activity against ceftazidime-resistant Pseudomonas aeruginosa by broth microdilution method
[27] = system: Pseudomonas aeruginosa; assay: Antibacterial activity against piperacillin- and tazobactam-resistant Pseudomonas aeruginosa by broth microdilution method
[28] = system: Pseudomonas aeruginosa; assay: Antibacterial activity against imipenem-susceptible Pseudomonas aeruginosa by broth microdilution method
[29] = system: Pseudomonas aeruginosa; assay: Antibacterial activity against piperacillin-susceptible Pseudomonas aeruginosa by broth microdilution method
[30] = system: Pseudomonas aeruginosa; assay: Antibacterial activity against ticarcillin-resistant Pseudomonas aeruginosa by broth microdilution method
[31] = system: Pseudomonas aeruginosa; assay: Antibacterial activity against meropenem-resistant Pseudomonas aeruginosa by broth microdilution method
[32] = system: Pseudomonas aeruginosa; assay: Antibacterial activity against piperacillin- and tazobactam-susceptible Pseudomonas aeruginosa by broth microdilution method
[33] = system: Pseudomonas aeruginosa; assay: Antibacterial activity against cefepime-resistant Pseudomonas aeruginosa by broth microdilution method
[34] = system: Pseudomonas aeruginosa; assay: Antibacterial activity against aztreonam-resistant Pseudomonas aeruginosa by broth microdilution method
[35] = system: Pseudomonas aeruginosa; assay: Antibacterial activity against amikacin-resistant Pseudomonas aeruginosa by broth microdilution method
[36] = system: Pseudomonas aeruginosa; assay: Antibacterial activity against imipenem-resistant Pseudomonas aeruginosa by broth microdilution method
[37] = system: Pseudomonas aeruginosa; assay: Antibacterial activity against Pseudomonas aeruginosa harboring high level of beta lactamase AmpC by broth microdilution method
[38] = system: Pseudomonas aeruginosa; assay: Antibacterial activity against cephalosporin-resistant Pseudomonas aeruginosa clinical isolates
[39] = system: Pseudomonas aeruginosa; assay: Antibacterial activity against non-multidrug-resistant Pseudomonas aeruginosa by broth microdilution method
[40] = system: Pseudomonas aeruginosa; assay: Antibacterial activity against multidrug-resistant Pseudomonas aeruginosa isolated from patient with cystic fibrosis
[41] = system: Pseudomonas aeruginosa; assay: Antibacterial activity against ticarcillin-susceptible Pseudomonas aeruginosa by broth microdilution method
[42] = system: Pseudomonas aeruginosa; assay: Antibacterial activity against Pseudomonas aeruginosa isolated from intensive care unit patient by broth microdilution method
[43] = system: Pseudomonas aeruginosa; assay: Antibacterial activity against Pseudomonas aeruginosa harboring low level of beta lactamase AmpC by broth microdilution method
[44] = system: Pseudomonas aeruginosa; assay: Antibacterial activity against ciprofloxacin -susceptible Pseudomonas aeruginosa by broth microdilution method
[45] = system: Pseudomonas aeruginosa; assay: Antibacterial activity against Pseudomonas aeruginosa isolated from non-intensive care unit patient by broth microdilution method
[46] = system: Pseudomonas aeruginosa; assay: Antibacterial activity against meropenem-susceptible Pseudomonas aeruginosa by broth microdilution method
[47] = system: Pseudomonas aeruginosa; assay: Antibacterial activity against tobramycin-resistant Pseudomonas aeruginosa by broth microdilution method
[48] = system: Pseudomonas aeruginosa; assay: Antibacterial activity against tobramycin-susceptible Pseudomonas aeruginosa by broth microdilution method

O=C(O)c1cn(C2CC2)c2cc(N3CCNCC3)c(F)cc2c1=O [CIPROFLOXACIN]
MIC [1]: 4 µg/mL (≈ 12.1 µM)
MIC [2]: 4 µg/mL (≈ 12.1 µM)
MIC [3]: 1 µg/mL (≈ 3.02 µM)
MIC [4]: 16 µg/mL (≈ 48.3 µM)

GENTAMICIN
Activity [5]: 58.9%

C[C@@H](O)[C@H]1C(=O)N2C(C(=O)O)=C(SCCNC=N)C[C@H]12 [IMIPENEM ANHYDROUS]
MIC [6]: 64 µg/mL (≈ 214 µM)
MIC [1]: > 64 µg/mL
MIC [7]: > 64 µg/mL
MIC [8]: 1 µg/mL (≈ 3.34 µM)
Activity [5]: 33.9%
MIC [9]: > 64 µg/mL
MIC [2]: > 64 µg/mL
MIC [3]: 16 µg/mL (≈ 53.4 µM)
MIC [10]: > 64 µg/mL
MIC [11]: 1 µg/mL (≈ 3.34 µM)
MIC [12]: 64 µg/mL (≈ 214 µM)
MIC [13]: > 64 µg/mL
MIC [14]: > 64 µg/mL
MIC [15]: 1 µg/mL (≈ 3.34 µM)
MIC [4]: > 64 µg/mL

CC(C)(O/N=C(\C(=O)N[C@@H]1C(=O)N2C(C(=O)[O-])=C(C[n+]3ccccc3)CS[C@H]12)c1csc(N)n1)C(=O)O [CEFTAZIDIME]
MIC [6]: > 64 µg/mL
MIC [1]: > 64 µg/mL
MIC [7]: 32 µg/mL (≈ 58.5 µM)
MIC [8]: > 64 µg/mL
Activity [5]: 46.2%
MIC [9]: > 64 µg/mL
MIC [2]: > 64 µg/mL
MIC [3]: 64 µg/mL (≈ 117 µM)
MIC [10]: > 64 µg/mL
MIC [11]: 4 µg/mL (≈ 7.32 µM)
MIC [12]: > 64 µg/mL
MIC [13]: 32 µg/mL (≈ 58.5 µM)
MIC [14]: 16 µg/mL (≈ 29.3 µM)
MIC [15]: 1 µg/mL (≈ 1.83 µM)
MIC [4]: > 64 µg/mL

Cn1c(N)c(NC(=O)NCCN)c[n+]1CC1=C(C(=O)O)N2C(=O)[C@@H](NC(=O)/C(=N\OC(C)(C)C(=O)[O-])c3nsc(N)n3)[C@H]2SC1 [CEFTOLOZANE]
MIC50 [16]: 1 µg/mL (≈ 1.5 µM)
MIC90 [16]: 4 µg/mL (≈ 6 µM)
MIC50 [17]: 1 µg/mL (≈ 1.5 µM)
MIC90 [17]: 2 µg/mL (≈ 3 µM)
MIC50 [18]: 1 µg/mL (≈ 1.5 µM)
MIC90 [18]: 2 µg/mL (≈ 3 µM)
MIC [6]: 64 µg/mL (≈ 96 µM)
MIC50 [19]: 1 µg/mL (≈ 1.5 µM)
MIC90 [19]: 2 µg/mL (≈ 3 µM)
MIC50 [20]: 1 µg/mL (≈ 1.5 µM)
MIC90 [20]: 4 µg/mL (≈ 6 µM)
MIC [1]: 64 µg/mL (≈ 96 µM)
MIC50 [21]: 1 µg/mL (≈ 1.5 µM)
MIC90 [21]: 2 µg/mL (≈ 3 µM)
MIC [7]: 32 µg/mL (≈ 48 µM)
MIC50 [22]: 1 µg/mL (≈ 1.5 µM)
MIC90 [22]: 4 µg/mL (≈ 6 µM)
MIC [8]: 32 µg/mL (≈ 48 µM)
MIC50 [23]: 1 µg/mL (≈ 1.5 µM)
MIC90 [23]: 4 µg/mL (≈ 6 µM)
MIC50 [24]: 0.5 µg/mL (≈ 0.75 µM)
MIC90 [24]: 2 µg/mL (≈ 3 µM)
MIC50 [25]: 1 µg/mL (≈ 1.5 µM)
MIC90 [25]: 8 µg/mL (≈ 12 µM)
MIC [9]: 32 µg/mL (≈ 48 µM)
MIC50 [26]: 1 µg/mL (≈ 1.5 µM)
MIC90 [26]: 4 µg/mL (≈ 6 µM)
MIC [2]: 64 µg/mL (≈ 96 µM)
MIC50 [27]: 1 µg/mL
MIC90 [27]: 4 µg/mL
MIC [3]: 32 µg/mL (≈ 48 µM)
MIC50 [28]: 1 µg/mL (≈ 1.5 µM)
MIC90 [28]: 4 µg/mL (≈ 6 µM)
MIC50 [29]: 1 µg/mL (≈ 1.5 µM)
MIC90 [29]: 2 µg/mL (≈ 3 µM)
MIC50 [30]: 1 µg/mL (≈ 1.5 µM)
MIC90 [30]: 8 µg/mL (≈ 12 µM)
MIC50 [31]: 1 µg/mL (≈ 1.5 µM)
MIC90 [31]: 4 µg/mL (≈ 6 µM)
MIC50 [32]: 1 µg/mL
MIC90 [32]: 2 µg/mL
MIC50 [33]: 1 µg/mL (≈ 1.5 µM)
MIC90 [33]: 4 µg/mL (≈ 6 µM)
MIC50 [34]: 1 µg/mL (≈ 1.5 µM)
MIC90 [34]: 4 µg/mL (≈ 6 µM)
MIC [10]: 64 µg/mL (≈ 96 µM)
MIC50 [35]: 1 µg/mL (≈ 1.5 µM)
MIC90 [35]: 64 µg/mL (≈ 96 µM)
MIC [11]: 0.5 µg/mL (≈ 0.75 µM)
MIC50 [36]: 1 µg/mL (≈ 1.5 µM)
MIC90 [36]: 4 µg/mL (≈ 6 µM)
MIC50 [37]: 1 µg/mL (≈ 1.5 µM)
MIC90 [37]: 4 µg/mL (≈ 6 µM)
MIC50 [38]: 0.51 µg/mL (≈ 0.765 µM)
MIC90 [38]: 1 µg/mL (≈ 1.5 µM)
MIC50 [39]: 1 µg/mL (≈ 1.5 µM)
MIC90 [39]: 2 µg/mL (≈ 3 µM)
MIC [40]: > 8 µg/mL
MIC50 [41]: 1 µg/mL (≈ 1.5 µM)
MIC90 [41]: 2 µg/mL (≈ 3 µM)
MIC50 [42]: 1 µg/mL (≈ 1.5 µM)
MIC90 [42]: 4 µg/mL (≈ 6 µM)
MIC50 [43]: 1 µg/mL (≈ 1.5 µM)
MIC90 [43]: 2 µg/mL (≈ 3 µM)
MIC50 [44]: 1 µg/mL (≈ 1.5 µM)
MIC90 [44]: 2 µg/mL (≈ 3 µM)
MIC [12]: 32 µg/mL (≈ 48 µM)
MIC [13]: 32 µg/mL (≈ 48 µM)
MIC [14]: 64 µg/mL (≈ 96 µM)
MIC50 [45]: 1 µg/mL (≈ 1.5 µM)
MIC90 [45]: 2 µg/mL (≈ 3 µM)
MIC [15]: 0.25 µg/mL (≈ 0.375 µM)
MIC50 [46]: 1 µg/mL (≈ 1.5 µM)
MIC90 [46]: 2 µg/mL (≈ 3 µM)
MIC50 [47]: 1 µg/mL (≈ 1.5 µM)
MIC90 [47]: 4 µg/mL (≈ 6 µM)
MIC [4]: 64 µg/mL (≈ 96 µM)
MIC50 [48]: 1 µg/mL (≈ 1.5 µM)
MIC90 [48]: 2 µg/mL (≈ 3 µM)
